The values below come from PubChem BioAssay (NCI).

Each structure is given as a SMILES string. “And” between values parts separate entries of the source, which are not always exact repeats. Equal values may be shown once.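 1) Cells in 96-well plates. 2) Compound, 48 h, 5 concentrations. 3) Linear interpolation between surrounding doses. 4) Unreached endpoint = highest concentration. GI50: concentration for 50% inhibition of growth. TGI is the concentration that stops growth completely.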

Assay in all cases: NCI-60 cell line screen, 48 h
The subject of test [1] is RPMI-8226 leukemia.
Test [2] has as its system IGROV1 ovarian.
Test [3] concerns TK-10 renal.
The subject of test [4] is ACHN renal.
In test [5] the test system is HCC-2998 colon.
In test [6] the test system is T-47D breast.
For test [7], the system named is NCI-H23 lung.
For test [8], the system named is LOX IMVI melanoma.
The test system of test [9] is SK-MEL-28 melanoma.
Test [10] relates to UO-31 renal.

Take `Oc1ccc(-c2nc(-c3cccnc3)c(-c3ccc(F)cc3)[nH]2)cc1`: the TGI is 39.8 µM in test [1]; 33.8 µM in test [2]; 36.2 µM in test [3]; 58.5 µM in test [4]; 40.3 µM in test [5]; 43.8 µM in test [6]. Also, the TGI in test [7] worked out at 25.5 µM; in [8], 28.5 µM; in test [9], 35.9 µM.

On to `O=C1CCC(=O)N1n1c(Cc2ccccc2)n[nH]c1=O`, for which the TGI in [1], in test [2], in test [10], in test [3], in test [4] and in [5] was > 100 µM in each case. The TGI in test [6], in test [8] and in test [9] was > 100 µM throughout.

For `CC1=C(C)[C@@]2(C)O[C@@]2(C)O[C@@]2(C)O[C@@]12C`, the TGI in test [10], in test [3], in test [4], in test [6], in test [7] and in [8] was > 100 µM each time. Moreover, the TGI in [9] was > 100 µM.

Consider `C=C(Br)C(C)(Cl)CCC(Br)C(C)(C)Cl` (stereo not drawn), for which the TGI was > 100 µM in test [2]; > 100 µM in test [10]; > 100 µM in [3]; 75 µM in test [4]; > 100 µM in test [5]; > 100 µM in test [6]. Also, the figures for the TGI in test [7], in test [8] and in test [9] were > 100 µM, 38 µM and > 100 µM, respectively.

Regarding `COc1ccc(CNc2nc(NCc3ccc(OC)c(OC)c3)nc(NC3CCCCC3)n2)cc1`, the TGI in test [2] was > 100 µM; in test [10] it was > 100 µM; in [3], > 100 µM; in test [4], > 100 µM; in [6], > 100 µM; in test [7], 52.2 µM. The TGI in test [8] and in test [9] was > 100 µM throughout.

As to `COc1ccc2c(=O)c(O)c(-c3ccc(OC)c(OC)c3)oc2c1`, the TGI in test [1] was > 100 µM; in [2], > 100 µM; in test [10], > 100 µM; in test [3] it was 45.8 µM; in [4] it was > 100 µM; in test [5], > 100 µM. The TGI in [6], in test [8] and in test [9] was > 100 µM in each case.

In the case of `NC(=O)C(c1ccccc1)N1OC2C(=O)N(c3ccccc3)C(=O)C2C1c1c2ccccc2c(Cl)c2ccccc12` (stereo not drawn), the TGI in test [1], in test [2], in [10], in test [4], in test [6] and in test [7] was > 100 µM each time. Further, the TGI in test [8] and in test [9] was > 100 µM throughout.

On to `CC[C@@]1(O)C(=O)OCc2c1cc1n(c2=O)Cc2c-1nc1ccccc1c2/C=N\NC(=O)CN`, for which the TGI in [1] is 18.8 µM; in test [2] it was > 66.7 µM; in [10], 5.38 µM; in test [3] it was > 100 µM; in test [5], > 47.4 µM; in test [6] it was > 20.3 µM. The TGI is 1.04 µM in [7], 1.36 µM in test [8] and > 100 µM in test [9].

Consider `Oc1cccc2c(Cl)ccnc12`, for which the TGI was > 29.7 µM in test [2]; > 95.3 µM in test [10]; > 100 µM in [3]; > 47.7 µM in test [4]; 14.9 µM in [5]; 48.2 µM in [6]. Also, the results for the TGI in [7], in test [8] and in test [9] were 26.2 µM, 19.6 µM and 35.9 µM, respectively.

In the case of `O=c1[nH][nH]c(=O)n1Cc1ccccc1Cn1c(=O)[nH][nH]c1=O`, the TGI in [1], in test [2], in test [10], in test [3], in test [4] and in test [6] was > 100 µM throughout. Also, the TGI in [7], in [8] and in test [9] was > 100 µM in each case.

`C=C(C1=CC(=O)C(C)(C)O1)[C@@H]1CC=C([C@@H]2CC[C@H]3[C@@]2(C)CC[C@H]2C(C)(C)C(=O)[C@H](O)C[C@]32C)[C@H](O)O1`: the TGI stood at 5.48 µM in test [2]; 2.88 µM in test [10]; 2.64 µM in [3]; 3.04 µM in test [4]; 7.49 µM in test [5]; 3.41 µM in test [6]. The TGI in test [7] was 12.6 µM; in test [8], 3.45 µM; in test [9] it was 12.2 µM.

Consider `CCCNC1=C2CC(C)CC(OC)[C@@H](O)[C@H](C)/C=C(\C)C(OC(N)=O)C(OC)/C=C\C=C(/C)C(=O)NC(=CC1=O)C2=O` (stereo partly drawn), for which the GI50 in [1] is 0.463 µM; in test [10] it was 0.558 µM; in test [3], 11.6 µM; in test [5] it was 0.359 µM; in test [6], 1.15 µM; in test [7] it was 0.0639 µM. Moreover, the GI50 in test [8] is 0.0466 µM. Also, the TGI was 42.2 µM in test [1]; 41.6 µM in test [2]; 32.2 µM in test [10]; > 100 µM in [3]; 91.4 µM in test [4]; 3.23 µM and 13.1 µM in [5]. In addition, the TGI in test [6] turned out to be 35 µM; in test [7], 23 µM; in test [8], 0.614 µM.

In the case of `C(/c1ccco1)=c1/nc(-c2ccccc2)n2c1nc1ccccc12`, the TGI is 44.4 µM in test [1]; > 100 µM in test [2]; > 100 µM in test [10]; > 100 µM in [3]; > 100 µM in [4]; > 100 µM in test [6]. For the same compound, the TGI in test [7] and in [8] was > 100 µM in each case.

For the compound `COc1cc2c(cc1OC)C(c1ccccc1CCCCl)=NCC2`, the TGI is 42 µM in test [1]; > 100 µM in test [2]; > 100 µM in test [10]; > 100 µM in [3]; > 100 µM in test [4]; > 100 µM in [5]. Further, the TGI was > 100 µM in test [6], > 100 µM in test [7] and 49.7 µM in test [9].
